{"source": "paper PMC6934184", "about": "“Selective DNA-PKcs inhibition extends the therapeutic index of localized radiotherapy and chemotherapy” (The Journal of Clinical Investigation, 2019)", "biological_target": "T1, CDK14 (PFTK1)/cyclin Y (Homo sapiens, UniProt O94921)", "T1 construct": "purchased Thermo Fisher Scientific (Life Technologies) SelectScreen", "T1 sequence (O94921 whole entry)": "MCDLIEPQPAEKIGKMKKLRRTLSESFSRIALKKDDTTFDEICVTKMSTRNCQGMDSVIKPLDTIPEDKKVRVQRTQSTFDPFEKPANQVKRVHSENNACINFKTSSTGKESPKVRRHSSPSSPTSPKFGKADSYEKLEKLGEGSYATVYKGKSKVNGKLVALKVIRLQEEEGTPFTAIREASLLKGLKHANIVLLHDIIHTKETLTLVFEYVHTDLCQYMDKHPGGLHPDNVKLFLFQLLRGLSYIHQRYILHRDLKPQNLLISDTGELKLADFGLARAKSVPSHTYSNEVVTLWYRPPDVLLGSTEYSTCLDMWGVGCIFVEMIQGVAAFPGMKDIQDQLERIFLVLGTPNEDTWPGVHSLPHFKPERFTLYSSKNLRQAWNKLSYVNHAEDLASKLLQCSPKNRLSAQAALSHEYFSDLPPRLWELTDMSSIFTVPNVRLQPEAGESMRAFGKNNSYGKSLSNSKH", "T1 sequence (Q8ND76 whole entry partner)": "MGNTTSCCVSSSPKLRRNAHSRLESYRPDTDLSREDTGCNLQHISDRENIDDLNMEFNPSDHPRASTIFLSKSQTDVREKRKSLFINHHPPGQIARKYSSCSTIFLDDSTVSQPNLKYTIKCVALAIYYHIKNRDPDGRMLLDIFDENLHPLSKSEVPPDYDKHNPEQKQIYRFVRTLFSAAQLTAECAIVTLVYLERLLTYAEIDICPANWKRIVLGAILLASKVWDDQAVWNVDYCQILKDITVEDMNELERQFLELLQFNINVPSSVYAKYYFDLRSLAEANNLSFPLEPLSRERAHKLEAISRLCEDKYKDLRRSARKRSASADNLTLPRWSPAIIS", "experiment": "SelectScreen LanthaScreen", "type": "binding", "details": "1 µM", "in_short": "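SelectScreen broad panel; activity (Z'LYTE, Adapta) plus binding formats. ATP: Km app for CSF1R Z'LYTE; 10 for CAMK1 Adapta. Readout = % per kinase.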"}
{"smiles": "CN(C(=O)CN1CCOCC1)c1ccc2sc3c(-c4cccc5c(=O)cc(N6CC7CCC(C6)O7)oc45)cccc3c2c1", "note": "[NU5455]", "values": [{"measurement": "% displacement", "result": 5.1, "unit": "%"}]}
